The values below come from patent US11780826B2 (Amgen Inc., priority 2017, dated 2023).

The subject of the assay is Bovine cardiac myofibrils. Description: In vitro model of dose-dependent myofibril ATPase modulation (AC1.4, pyruvate kinase/lactate dehydrogenase-coupled ATPase assay at pCa25). The assay is classed as biochemical. The following applies: concentration at which ATPase activity was 1.4-fold higher than the bottom of the dose curve, mean of a minimum of two independent tests. In short, it runs like this: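 Absorbance at 340 nm tracked ATP hydrolysis through pyruvate kinase/lactate dehydrogenase coupling (0.5 mM NADH, 1.5 mM PEP). Myofibrils from detergent-homogenized bovine heart, 1 mM ATP, pH 6.80, EGTA/CaCl2 buffering. Dose-response curves fitted with a four-parameter Hill equation.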
For `CS(=O)(=O)c1cncc(C(=O)N2[C@@H](C(=O)N[C@@H](c3ccc(C(F)(F)F)c(F)c3)C3CC3)C[C@H]3C[C@H]32)c1` [Example 548, (1R,3R,5R)-N-((R)-cyclopropyl(3-fluoro-4-(trifluoromethyl)phenyl)methyl)-2-((5-(methylsulfonyl)-3-pyridinyl)carbonyl)-2-azabicyclo[3.1.0]hexane-3-carboxamide], the AC1.4 amounted to 2.66 µM. For the compound `O=C(N[C@@H](c1ccc(C(F)(F)F)cc1F)C1CC1)[C@H]1CCCN1C(=O)c1cccc(-c2cc[nH]n2)c1` [Example 745, N-((R)-cyclopropyl(2-fluoro-4-(trifluoromethyl)phenyl)methyl)-1-(3-(1H-pyrazol-3-yl)benzoyl)-D-prolinamide], the AC1.4 amounted to 7.244 µM. The value for `N#CC1CN(S(=O)(=O)N2CCC[C@H](C(=O)N3CCC[C@@H]3C(=O)NCc3ccccc3)C2)C1` [Example 758, (R)—N-benzyl-1-((S)-1-((3-cyanoazetidin-1-yl)sulfonyl)piperidine-3-carbonyl)pyrrolidine-2-carboxamide] was 7.61 µM; that for `CC(C)[C@@H](NC(=O)[C@H]1CCCN1C(=O)c1cccc(S(C)(=O)=O)c1)c1ccc(C(F)(F)F)cc1F` [Example 807, N-((1R)-1-(2-fluoro-4-(trifluoromethyl)phenyl)-2-methylpropyl)-1-(3-(methylsulfonyl)benzoyl)-D-prolinamide] was 4.609 µM.

`O=C(NCc1ccc(C(F)(F)F)cc1)[C@H]1CCCN1C(=O)[C@H]1CCCN(S(=O)(=O)N2CCC23CCC3)C1` [Example 800, 1-(((3S)-1-(1-azaspiro[3.3]hept-1-ylsulfonyl)-3-piperidinyl)carbonyl)-N-(4-(trifluoromethyl)benzyl)-D-prolinamide] gave an AC1.4 of 9.537 µM. The value for `O=C(NCc1ccc(C(F)(F)F)cc1)[C@H]1CCCN1C(=O)[C@H]1CCCN(S(=O)(=O)N2CCC2Cc2ccccc2)C1` (stereo partly drawn) [Example 720, (2R)-1-((3S)-1-((2-benzylazetidin-1-yl)sulfonyl)piperidine-3-carbonyl)-N-(4-(trifluoromethyl)benzyl)pyrrolidine-2-carboxamide] was 6.27 µM; that for `CC1(C)CN(S(=O)(=O)c2cccc(C(=O)N3CCC[C@@H]3C(=O)NCc3ccc(C(F)(F)F)cc3)c2)C1` [Example 234, 1-((3-((3,3-dimethyl-1-azetidinyl)sulfonyl)phenyl)carbonyl)-N-(4-(trifluoromethyl)benzyl)-D-prolinamide] was 0.5321 µM; that for `CS(=O)(=O)c1ccc(NC2CCC2)c(C(=O)N2CCC[C@@H]2C(=O)N[C@@H](c2ccc(C(F)(F)F)cc2F)C2CC2)c1` [Example 44, 1-(2-(cyclobutylamino)-5-(methylsulfonyl)benzoyl)-N-((R)-cyclopropyl(2-fluoro-4-(trifluoromethyl)phenyl)methyl)-D-prolinamide] was 0.0434 µM.

In turn, `O=C1NCCCCC1NS(=O)(=O)N1CCC[C@H](C(=O)N2CCC[C@@H]2C(=O)NCc2ccc(C(F)(F)F)cc2)C1` (stereo partly drawn) [Example 473, (2R)-1-((3S)-1-(N-(2-oxoazepan-3-yl)sulfamoyl)piperidine-3-carbonyl)-N-(4-(trifluoromethyl)benzyl)pyrrolidine-2-carboxamide] showed an AC1.4 of 2.035 µM.

The compound `N#CC1CN(S(=O)(=O)c2cccc(C(=O)N3CCC[C@@H]3C(=O)N[C@H](CO)c3ccc(Cl)cc3)c2)C1` [Example 57, N-((1S)-1-(4-chlorophenyl)-2-hydroxyethyl)-1-(3-((3-cyano-1-azetidinyl)sulfonyl)benzoyl)-D-prolinamide] registered an AC1.4 of 0.06485 µM. `O=C(N[C@@H](c1ccc(C(F)(F)F)cc1F)C1CC1)[C@H]1CCCN1C(=O)c1cccc(-c2cn[nH]c2)c1` [Example 737, N-((R)-cyclopropyl(2-fluoro-4-(trifluoromethyl)phenyl)methyl)-1-(3-(1H-pyrazol-4-yl)benzoyl)-D-prolinamide] gave an AC1.4 of 7.053 µM. The compound `CS(=O)(=O)c1cncc(C(=O)N2[C@@H](C(=O)N[C@@H](c3cc(F)c(Cl)cc3F)C(F)F)C[C@H]3C[C@H]32)c1` [Example 817, (1R,3R,5R)-N-((S)-1-(4-chloro-2,5-difluorophenyl)-2,2-difluoroethyl)-2-(5-(methylsulfonyl)nicotinoyl)-2-azabicyclo[3.1.0]hexane-3-carboxamide] had an AC1.4 of 9.115 µM.

`Cc1noc(C(=O)N2[C@@H](C(=O)N[C@@H](c3cc(F)c(C(F)(F)F)cc3F)C3COC3)C[C@H]3C[C@H]32)c1C` [Example 824, (1R,3R,5R)-N-((R)-(2,5-difluoro-4-(trifluoromethyl)phenyl)(oxetan-3-yl)methyl)-2-(3,4-dimethylisoxazole-5-carbonyl)-2-azabicyclo[3.1.0]hexane-3-carboxamide]: the AC1.4 worked out at 8.874 µM.

For `Cc1cc(CNC(=O)[C@H]2CCCN2C(=O)[C@H]2CCCN(S(=O)(=O)N3CC(C#N)C3)C2)ccc1F` [Example 439, 1-(((3S)-1-((3-cyano-1-azetidinyl)sulfonyl)-3-piperidinyl)carbonyl)-N-(4-fluoro-3-methylbenzyl)-D-prolinamide], the AC1.4 was found to be 1.7125 µM. To `CS(=O)(=O)c1ccc(C(=O)N2CCC[C@@H]2C(=O)NC(c2ccc(C(F)(F)F)cc2F)C2CC2)s1` (stereo partly drawn) [Example 567, (2R)-N-(cyclopropyl(2-fluoro-4-(trifluoromethyl)phenyl)methyl)-1-(5-(methylsulfonyl)thiophene-2-carbonyl)pyrrolidine-2-carboxamide] belongs 3.1075 µM; to `N#CC1CN(S(=O)(=O)N2CC[C@H](C(=O)N3CCC[C@@H]3C(=O)NCc3ccc(C(F)(F)F)cc3F)C2)C1` [Example 470, 1-(((3S)-1-((3-cyano-1-azetidinyl)sulfonyl)-3-pyrrolidinyl)carbonyl)-N-(2-fluoro-4-(trifluoromethyl)benzyl)-D-prolinamide], 1.9915 µM; to `O=C(N[C@@H](c1ccc(C(F)(F)F)cc1F)C1CC1)[C@H]1CCCCN1C(=O)c1ccc2c(c1)S(=O)(=O)CC2` [Example 653, (2R)—N—((R)-cyclopropyl(2-fluoro-4-(trifluoromethyl)phenyl)methyl)-1-((1,1-dioxido-2,3-dihydro-1-benzothiophen-6-yl)carbonyl)-2-piperidinecarboxamide], 4.5245 µM. The value for `N#CC1CN(S(=O)(=O)c2cccc(C(=O)N3CCC[C@@H]3C(=O)NCc3ccc(Cl)c(Cl)c3)c2)C1` [Example 22, 1-((3-((3-cyano-1-azetidinyl)sulfonyl)phenyl)carbonyl)-N-(3,4-dichlorobenzyl)-D-prolinamide] was 0.02715 µM; that for `Cc1cccc(F)c1CNC(=O)[C@H]1CCCN1C(=O)[C@H]1CCCN(S(=O)(=O)N2CC(C#N)C2)C1` [Example 607, 1-(((3S)-1-((3-cyano-1-azetidinyl)sulfonyl)-3-piperidinyl)carbonyl)-N-(2-fluoro-6-methylbenzyl)-D-prolinamide] was 3.714 µM. Consider `CS(=O)(=O)c1cc(C(=O)N2CCC[C@@H]2C(=O)N[C@@H](c2ccc(C(F)(F)F)cc2F)C2CC2)ccc1N` [Example 805, 1-(4-amino-3-(methylsulfonyl)benzoyl)-N-((R)-cyclopropyl(2-fluoro-4-(trifluoromethyl)phenyl)methyl)-D-prolinamide], for which the AC1.4 turned out to be 9.817 µM. To `CC(NC(=O)[C@H]1CCCN1C(=O)[C@H]1CCCN(S(=O)(=O)N2CC(C#N)C2)C1)c1cccc(F)c1F` (stereo partly drawn) [Example 763, (2R)-1-((S)-1-((3-cyanoazetidin-1-yl)sulfonyl)piperidine-3-carbonyl)-N-(1-(2,3-difluorophenyl)ethyl)pyrrolidine-2-carboxamide] belongs 7.879 µM; to `O=C(N[C@@H](c1cc(F)c(Cl)cc1F)C1COC1)[C@H]1C[C@@H](O)CN1C(=O)c1cncc(C(F)(F)F)c1` [Example 638, (4R)-N-((R)-(4-chloro-2,5-difluorophenyl)(3-oxetanyl)methyl)-4-hydroxy-1-((5-(trifluoromethyl)-3-pyridinyl)carbonyl)-D-prolinamide], 4.1835 µM; to `C[C@@H](NC(=O)[C@H]1CCCN1C(=O)c1cccc(S(C)(=O)=O)c1)c1cc(F)c(Cl)cc1F` [Example 636, N-((1R)-1-(4-chloro-2,5-difluorophenyl)ethyl)-1-(3-(methylsulfonyl)benzoyl)-D-prolinamide], 3.919 µM.

In turn, `O=C(NCc1ccc(C(F)(F)F)cc1)[C@H]1CCCN1C(=O)[C@H]1CCCN(S(=O)(=O)N2CC(n3cncn3)C2)C1` [Example 679, 1-(((3S)-1-((3-(1H-1,2,4-triazol-1-yl)-1-azetidinyl)sulfonyl)-3-piperidinyl)carbonyl)-N-(4-(trifluoromethyl)benzyl)-D-prolinamide] displayed an AC1.4 of 5.023 µM. Consider `Cc1cc(C(=O)N2[C@@H](C(=O)N[C@@H](c3ccc(C(F)(F)F)cc3F)C3COC3)C[C@H]3C[C@H]32)cc(S(C)(=O)=O)c1` [Example 323, (1R,3R,5R)-N-((R)-(2-fluoro-4-(trifluoromethyl)phenyl)(3-oxetanyl)methyl)-2-(3-methyl-5-(methylsulfonyl)benzoyl)-2-azabicyclo[3.1.0]hexane-3-carboxamide], for which the AC1.4 was found to be 0.8707 µM. The value for `NS(=O)(=O)c1cccc(C(=O)N2[C@@H](C(=O)N[C@@H](c3cc(F)c(Cl)cc3F)C3CC3)C[C@H]3C[C@H]32)c1` [Example 139, (1R,3R,5R)-N-((R)-(4-chloro-2,5-difluorophenyl)(cyclopropyl)methyl)-2-(3-sulfamoylbenzoyl)-2-azabicyclo[3.1.0]hexane-3-carboxamide] was 0.232 µM; that for `N#CC1CN(S(=O)(=O)c2cccc(C(=O)N3CCC[C@@H]3C(=O)N[C@@H](CO)c3ccc(C(F)(F)F)cc3)c2)C1` [Example 188, 1-(3-((3-cyano-1-azetidinyl)sulfonyl)benzoyl)-N-((1R)-2-hydroxy-1-(4-(trifluoromethyl)phenyl)ethyl)-D-prolinamide] was 0.3496 µM.
